ChEMBL document CHEMBL1201862, “PubChem BioAssay data set” (2004)
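Briefly, cells in 96-well plates were exposed to five compound concentrations for 48 h, and endpoints were estimated by linear interpolation. At the GI50, growth is halved.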 Active and inactive are the calls of the source. Cut-off read from the data, not from the text of the source: active = GI50 up to about 1.1 µM and inactive = higher.

Columns and labels:
Assay in all cases: NCI tumour cell line growth inhibition, 48 h
T47D = system: T47D
BT-549 = system: BT-549
SNB-78 = system: SNB-78
DMS-273 = system: DMS-273
XF498 = system: XF498
DLD-1 = system: DLD-1
HOP-18 = system: HOP-18
DMS-114 = system: DMS-114

In the case of `O=C(N/N=C\c1cccc(O)c1)c1ccncc1`, the GI50 (T47D) was > 100 µM (inactive) and the GI50 (BT-549) was > 100 µM (inactive).
With `CN(Cc1cccc2ccccc12)Cc1cccc2ccccc12` the GI50 (T47D) was 21 µM (inactive) and the GI50 (BT-549) was 56.4 µM (inactive).
`Nc1nc(N)c2c(Cl)c(CNc3ccc(C(=O)NC(CC(=O)O)C(=O)O)cc3)ccc2n1` (centres undefined) was tested, and the GI50 (T47D) was > 100 µM (inactive) and the GI50 (BT-549) was < 0.01 µM (active).
In the case of `CN(C)CCCNC(=O)c1cn2c(ccc3sc4ccccc4c(=O)c32)n1`, the GI50 (T47D) was 18.3 µM (inactive) and the GI50 (BT-549) was 18.5 µM (inactive).
`O=C1c2ccccc2C(=O)N1c1ccc(Cc2ccc(N3C(=O)c4ccccc4C3=O)cc2)cc1` was tested, and the GI50 (T47D) was > 100 µM (inactive) and the GI50 (BT-549) was > 100 µM (inactive).
For `c1csc(C(NC2=NCCO2)C2CC2)c1` (centres undefined), the GI50 (T47D) was > 100 µM (inactive).
For `CC(=O)c1c(-c2cccc3ccccc23)c(C#N)c(=S)n(C2OC(CO)C(O)C(O)C2O)c1C` (centres undefined), the GI50 (BT-549) was > 100 µM (inactive).
In the case of `COc1ccc(N2C(=O)/C(=C\c3ccccc3)SC2c2cc(OC)c(OC)c(OC)c2)cc1` (centres undefined), the GI50 (T47D) was 20.1 µM (inactive) and the GI50 (BT-549) was > 100 µM (inactive).
`COC(=O)c1s/c(=N\C(=S)N(C)C)n(-c2ccc(Cl)cc2)c1C(=O)OC` was tested, and the GI50 (SNB-78) was > 100 µM (inactive) and the GI50 (DMS-273) was > 100 µM (inactive).
`CCC1C(=O)OCc2c1cc1n(c2=O)C(CC)c2c-1nc1ccccc1c2Cl` (centres undefined) was tested, and the GI50 (XF498) was 24.8 µM (inactive), the GI50 (SNB-78) was 25.6 µM (inactive) and the GI50 (DMS-273) was 7.85 µM (inactive). For the same molecule, the GI50 (DLD-1) was 35.2 µM (inactive) and the GI50 (HOP-18) was 20.3 µM (inactive).
In the case of `CCOC(=O)NC1CC2CCC1(OC)C=C2C` (centres undefined), the GI50 (XF498) was > 100 µM (inactive), the GI50 (SNB-78) was > 100 µM (inactive) and the GI50 (DMS-273) was > 100 µM (inactive). For the same molecule, the GI50 (DLD-1) was > 100 µM (inactive), the GI50 (HOP-18) was > 100 µM (inactive) and the GI50 (DMS-114) was > 100 µM (inactive).
With `Cn1c(=O)c2c(nc3n2CCCC(=O)N3CCCCl)n(C)c1=O` the GI50 (T47D) was > 100 µM (inactive) and the GI50 (BT-549) was > 100 µM (inactive).
In the case of `CCc1cc2c(c3c1CCCC3)CC1(Cc3ccc(C(=O)OC)cc3C1)C2` (centres undefined), the GI50 (T47D) was 46.8 µM (inactive) and the GI50 (BT-549) was > 100 µM (inactive).
With `C[N+](C)(C)C.FC(F)(F)C1(C(F)(F)F)O[SiH-]2(OC(C(F)(F)F)(C(F)(F)F)c3ccccc32)c2ccccc21` the GI50 (SNB-78) was 13.2 µM (inactive), the GI50 (DMS-273) was 20.1 µM (inactive) and the GI50 (HOP-18) was 36.9 µM (inactive). The GI50 (DMS-114) was 14.1 µM (inactive).
In the case of `CCOc1cc(NC(C)=O)ccc1C(=O)NN1C(=O)/C(=C/c2cc(OC)c(OC)c(OC)c2)N=C1c1ccccc1`, the GI50 (BT-549) was 16.3 µM (inactive).
With `COc1c(O)cc2c(c1O)C(=O)/C(=C/c1ccc(O)cc1)CO2` the GI50 (T47D) was 30.8 µM (inactive) and the GI50 (BT-549) was 32.9 µM (inactive).
For `Cc1ccc2nc(SCC(=O)N/N=C3\C(=O)Nc4ccccc43)n(-c3ccccc3)c(=O)c2c1`, the GI50 (T47D) was 15.5 µM (inactive).
For `NC(=O)N/N=C1/CCC(O)CC1CC(=O)O` (centres undefined), the GI50 (T47D) was > 100 µM (inactive) and the GI50 (BT-549) was > 100 µM (inactive).
With `Cc1ccc(C2=Nn3c(nc4sc(-c5ccccc5)cc4c3=O)SC2)cc1` the GI50 (T47D) was > 100 µM (inactive) and the GI50 (BT-549) was > 100 µM (inactive).
In the case of `CC(C)NC(=O)OCc1c(COC(=O)NC(C)C)n(C)c2c1ccc1sccc12`, the GI50 (T47D) was 17.3 µM (inactive) and the GI50 (BT-549) was 2.96 µM (inactive).
In the case of `CCOC(=O)c1cc2c([nH]1)c(O)cc1c2ccn1Cc1ccccc1`, the GI50 (T47D) was 2.85 µM (inactive) and the GI50 (BT-549) was 17.8 µM (inactive).
`Cc1ccc(NC=O)c(-c2c(N)[nH]c(=S)[nH]c2=O)c1` was tested, and the GI50 (T47D) was > 100 µM (inactive) and the GI50 (BT-549) was > 100 µM (inactive).
For `N[C@@H]1C[C@H](N)c2c(Cl)sc(Cl)c21`, the GI50 (T47D) was > 100 µM (inactive) and the GI50 (BT-549) was > 100 µM (inactive).
With `CC(=O)OC12c3ccccc3C1CCCC21OCCCO1` (centres undefined) the GI50 (SNB-78) was > 100 µM (inactive), the GI50 (DMS-273) was > 100 µM (inactive) and the GI50 (DLD-1) was > 100 µM (inactive). For the same molecule, the GI50 (HOP-18) was > 100 µM (inactive) and the GI50 (DMS-114) was > 100 µM (inactive).
With `CCCCN1C(=O)CS/C1=N/Nc1nc2c([nH]1)c(=O)n(C)c(=O)n2C` the GI50 (T47D) was 34.2 µM (inactive) and the GI50 (BT-549) was > 100 µM (inactive).
In the case of `C/C(=C/CO[Si](C)(C)C(C)(C)C)C(=O)N(C)c1ccccc1I`, the GI50 (T47D) was 14.8 µM (inactive) and the GI50 (BT-549) was 20.8 µM (inactive).
In the case of `COc1cccc(/C=N/NC(=O)CN(C)C)c1O`, the GI50 (T47D) was > 100 µM (inactive) and the GI50 (BT-549) was > 100 µM (inactive).
With `COc1ccc(N2C(=O)[C@@H]3[C@@H]4CC(C)CC[C@@H]4c4c([nH]c5ccccc45)[C@@H]3C2=O)cc1` (some centres undefined) the GI50 (XF498) was 8.3 µM (inactive), the GI50 (SNB-78) was 3.76 µM (inactive) and the GI50 (DMS-273) was 14.7 µM (inactive). For the same molecule, the GI50 (DLD-1) was 29.5 µM (inactive), the GI50 (HOP-18) was 4.4 µM (inactive) and the GI50 (DMS-114) was 31.1 µM (inactive).
With `COC(=O)CC1CN(C(=O)OCc2ccccc2)C(C)(C)O1` (centres undefined) the GI50 (BT-549) was 4.97 µM (inactive).
With `CN(Cc1ccccc1)C(=NC#N)N(C)Cc1ccccc1` the GI50 (SNB-78) was > 100 µM (inactive), the GI50 (DMS-273) was > 100 µM (inactive) and the GI50 (DLD-1) was > 100 µM (inactive).
For `CN(C)c1nc(N(C)C)nc(N(C)CN(C)c2ccc(Cl)cc2)n1`, the GI50 (XF498) was > 100 µM (inactive), the GI50 (SNB-78) was > 100 µM (inactive) and the GI50 (DMS-273) was > 100 µM (inactive). The GI50 (DLD-1) was > 100 µM (inactive) and the GI50 (DMS-114) was > 100 µM (inactive).
In the case of `CN(C)CCNc1c2ccccc2c2c3c(cccc13)C(=O)N(CCN(C)C)C2=O`, the GI50 (XF498) was 0.267 µM (active), the GI50 (SNB-78) was 0.151 µM (active) and the GI50 (DMS-273) was 0.122 µM (active). For the same molecule, the GI50 (DLD-1) was 0.0578 µM (active) and the GI50 (HOP-18) was 0.188 µM (active).
For `COc1cc2c3c(c4cc(OC)c(OC)cc4c2cc1OC)C(=O)C1CCC(=O)N1C3` (centres undefined), the GI50 (T47D) was 8.71 µM (inactive) and the GI50 (BT-549) was 14.8 µM (inactive).
